Values of other authors as cited in patent publication US11903921B2 (priority 2020, dated 2024).

How the values were obtained:
[1] = animal and human studies; orally in water, inhaled, intravenous
[2] = tested on: influenza and respiratory tract infections; conditions: prophylaxis and treatment
[3] = tested on: SEB-exposed mice; conditions: mouse, in vivo
[4] = tested on: LPS-induced acute pulmonary inflammation; conditions: 100 μmol/kg bodyweight, mouse
[5] = tested on: hyaluronan; conditions: inhibitor of hyaluronan; compared with 4-MU
[6] = tested on: basophils
[7] = tested on: ovalbumin-induced asthma; conditions: through inhibition of NF-κB activity

Q: For `[HH]` [Molecular hydrogen], which harmlessness [1] is on record?
A: essentially harmless

Q: Which “efficacy and safety in influenza and respiratory tract infections” value [2] does the source give for `CCCCCCCCCCCCCCCC(=O)NCCO` [PEA, palmitoylethanolamide] here?
A: effective and safe

Q: With `Cc1cc(=O)oc2cc(O)ccc12` [4-MU, 7-Hydroxy-4-methyl-2H-chromen-2-one] as the compound, how does the SEB-induced lung permeability [3] read?
A: reduction in SEB-induced lung permeability

Q: And the cytokine production [3]?
A: reduced cytokine production

Q: What about the “expression of HAS-1, HAS-2, and HAS-3” value [3] of the same compound?
A: reduces expression of HAS-1, HAS-2, and HAS-3

Q: And the “levels of HA in the lungs” value [3]?
A: reduced levels of HA

Q: Which “anti-inflammatory effects compared with dexamethasone” value [4] does the source give for `O=c1c(O)c(-c2ccc(O)c(O)c2)oc2cc(O)ccc12` [Fisetin] here?
A: more pronounced than dexamethasone

Q: And the measures of inflammation [4]?
A: significantly reduced numerous measures of inflammation

Q: What about the “effective dose relative to 4-MU” value [5] of the same compound?
A: 10 times lower

Q: What about the “expression of T(H)2-type cytokines (IL-4, IL-13, and IL-5)” value [6] of the same compound?
A: powerfully suppress

Q: And the “efficacy in ovalbumin-induced asthma” value [7]?
A: effective
